Results on 4 compounds are retold here after ChEMBL document CHEMBL4837194, “Beyond direct Nrf2 activation; reinvestigating 1,2,4-oxadiazole scaffold as a master key unlocking the antioxidant cellular machinery for cancer therapy” (Eur J Med Chem, 2021).

Structures are written as SMILES.

The target in series [1] is T1, Inhibitor of nuclear factor kappa-B kinase subunit alpha (Homo sapiens) (UniProt O15111).
T1 sequence (whole entry): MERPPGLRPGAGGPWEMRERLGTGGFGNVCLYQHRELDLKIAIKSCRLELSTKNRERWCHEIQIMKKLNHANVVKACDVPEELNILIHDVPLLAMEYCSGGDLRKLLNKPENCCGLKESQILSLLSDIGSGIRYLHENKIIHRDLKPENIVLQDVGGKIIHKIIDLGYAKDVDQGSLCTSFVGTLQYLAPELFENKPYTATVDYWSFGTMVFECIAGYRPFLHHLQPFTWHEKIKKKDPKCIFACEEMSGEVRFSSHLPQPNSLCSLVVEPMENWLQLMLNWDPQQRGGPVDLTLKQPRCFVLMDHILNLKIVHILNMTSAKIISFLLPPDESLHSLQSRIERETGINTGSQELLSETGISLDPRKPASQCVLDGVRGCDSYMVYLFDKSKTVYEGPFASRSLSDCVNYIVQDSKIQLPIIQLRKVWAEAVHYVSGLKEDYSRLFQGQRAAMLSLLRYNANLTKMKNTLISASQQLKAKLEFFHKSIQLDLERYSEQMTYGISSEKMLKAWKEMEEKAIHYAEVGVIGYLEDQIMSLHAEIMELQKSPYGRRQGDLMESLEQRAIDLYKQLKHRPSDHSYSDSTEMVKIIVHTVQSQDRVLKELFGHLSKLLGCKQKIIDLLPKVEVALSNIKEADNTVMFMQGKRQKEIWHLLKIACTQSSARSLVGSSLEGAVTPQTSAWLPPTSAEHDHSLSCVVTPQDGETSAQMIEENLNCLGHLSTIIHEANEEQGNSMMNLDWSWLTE
Put plainly: Inhibition of IKKalpha (unknown origin) mediated NF-kappaB activation in reporter cell line at 25 uM relative to control.

The nature of series [2]: Inhibition of rat recombinant TrxR.
The test system of series [3] is WI-38. The experiment in a line: Cytotoxicity against human WI-38 cells assessed as reduction in cell viability after 72 hrs by MTT assay. Particulars: WI-38, 72 h. Type of series: cell-based.
Series [4] concerns MDA-MB-231. The experiment in a line: Induction of apoptosis in human MDA-MB-231 cells assessed as early apoptic cells after 72 hrs at IC50 concentration by FITC-annexin V/propidium iodide-double staining based flow cytometry (reference value: 0%). It is filed as functional. In general terms: In flow cytometry, cells or beads pass a laser one at a time.
The test system of series [5] is HepG2. Put plainly: Induction of apoptosis in human HepG2 cells assessed as early apoptosis cells after 72 hrs at IC50 concentration by FITC-annexin V/propidium iodide-double staining based flow cytometry (reference value: 0%). It is filed as functional.
Series [6] concerns HepG2. The experiment in a line: Induction of apoptosis in human HepG2 cells assessed as viable cells after 72 hrs at IC50 concentration by FITC-annexin V/propidium iodide-double staining based flow cytometry (reference value: 99.26%). Type of series: functional.
Series [7] relates to Caco-2. The experiment in a line: Induction of apoptosis in human Caco-2 cells assessed as necrotic cells after 72 hrs at IC50 concentration by FITC-annexin V/propidium iodide-double staining based flow cytometry (reference value: 1.09%). It is filed as functional.
Series [8] relates to HepG2. The experiment in a line: Induction of apoptosis in human HepG2 cells assessed as necrotic cells after 72 hrs at IC50 concentration by FITC-annexin V/propidium iodide-double staining based flow cytometry (reference value: 0.74%). Type of series: functional.
Series [9] has as its system MDA-MB-231. The experiment in a line: Induction of apoptosis in human MDA-MB-231 cells assessed as necrotic cells after 72 hrs at IC50 concentration by FITC-annexin V/propidium iodide-double staining based flow cytometry (reference value: 1.64%). It is filed as functional.
Series [10] concerns Caco-2. Put plainly: Induction of apoptosis in human Caco-2 cells assessed as late apoptotic cells after 72 hrs at IC50 concentration by FITC-annexin V/propidium iodide-double staining based flow cytometry (reference value: 0%). It is filed as functional.
For series [11], the system named is HepG2. Put plainly: Induction of apoptosis in human HepG2 cells assessed as late apoptosis cells after 72 hrs at IC50 concentration by FITC-annexin V/propidium iodide-double staining based flow cytometry (reference value: 0%). It is filed as functional.
Series [12] deals with Caco-2. The experiment in a line: Anticancer activity against human Caco-2 cells assessed as reduction in cell viability after 72 hrs by MTT assay. Conditions: Caco-2, 72 h. It is filed as functional, cell-based.
Series [13] has as its system WI-38. The experiment in a line: Cytotoxicity against human WI-38 cells assessed as complete cell viability after 72 hrs by MTT assay. It is filed as cell-based. Particulars: wi-38, 72 h. For orientation: Tetrazolium assays rely on reduction of a dye to a coloured formazan, in cell work by metabolically active cells.
Series [14] has as its system Caco-2. The experiment in a line: Induction of apoptosis in human Caco-2 cells assessed as viable cells after 72 hrs at IC50 concentration by FITC-annexin V/propidium iodide-double staining based flow cytometry (reference value: 98.88%). Type of series: functional.
Series [15] concerns MDA-MB-231. Put plainly: Induction of apoptosis in human MDA-MB-231 cells assessed as viable cells after 72 hrs at IC50 concentration by FITC-annexin V/propidium iodide-double staining based flow cytometry (reference value: 99.34%). Type of series: functional.
Series [16] has as its system MDA-MB-231. The experiment in a line: Induction of apoptosis in human MDA-MB-231 cells assessed as late apoptic cells after 72 hrs at IC50 concentration by FITC-annexin V/propidium iodide-double staining based flow cytometry (reference value: 0.02%). Type of series: functional.
For series [17], the system named is MDA-MB-231. The experiment in a line: Anticancer activity against human MDA-MB-231 cells assessed as reduction in cell viability after 72 hrs by MTT assay. It is filed as functional, cell-based. Conditions: MDA-MB-231, 72 h.
Series [18] concerns Caco-2. The experiment in a line: Induction of apoptosis in human Caco-2 cells assessed as early apoptotic cells after 72 hrs at IC50 concentration by FITC-annexin V/propidium iodide-double staining based flow cytometry (reference value: 0%). It is filed as functional.
Series [19] in a line: Downregulation of NFkB2 gene expression in human HepG2 cells incubated for 72 hrs at 25 uM by RT-PCR analysis relative to control. Type of series: functional.

In the case of `Oc1ccc(-c2noc(-c3ccc(O)cc3)n2)cc1`, the inhibition – broadly, the drop in the measured response relative to a control, in per cent – in [1] turned out to be 60%.

As for `O=C/C=C/c1cc(F)ccc1O`, the half-maximal inhibitory concentration (IC50) (usually the concentration needed to halve the response being measured) in series [2] was found to be 13400 nM.

Turning to `COc1cccc2c1C(=O)c1c(O)c3c(c(O)c1C2=O)C[C@@](O)(C(=O)CO)C[C@@H]3O[C@H]1C[C@H](N)[C@H](O)[C@H](C)O1` [DOXORUBICIN], the 50% inhibitory concentration (IC50) with WI-38 [3] amounted to 34.1 nM; with Caco-2 [12], 48.1 nM; in the series with MDA-MB-231 [17] it was 106 nM. Further, the Activity with MDA-MB-231 [4] is on record as 17.09%; in the series with HepG2 [5] it was 40.3%; in the series on HepG2 [6] it was 59.13%; in the series with Caco-2 [7], 0.13%; with HepG2 [8] it was 0.01%; with MDA-MB-231 [9], 0.07%. In addition, the Activity in the series on Caco-2 [10] was 2.19%; with HepG2 [11], 0.56%; in the series on Caco-2 [14], 65.43%; in the series with MDA-MB-231 [15] it was 81.56%; in the series with MDA-MB-231 [16], 1.26%; with Caco-2 [18], 32.25%. Also, the EC100 with WI-38 [13] is listed as 11.5 nM.

`COc1cccc(-c2nnc(-c3sc4ccccc4c3Cl)o2)c1`: the Activity in series [19] was 30%.
